The values below come from patent US9226929B2, “Pharmaceutically active disubstituted triazine derivatives” (Bayer Intellectual Property GMBH, priority 2011, dated 2016).

For one assay, the target named is T1, CDK9/Cyclin T1 (Homo sapiens, UniProt P50750).
T1 construct: His; purchased Invitrogen
The assay can be described thus: LanthaScreen Eu Kinase Binding Assay, CDK9/Cyclin T1. Conditions: tracer 236, read-out: CDK9/Cyclin T1 (activity range), Kd. The procedure, abridged: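 TR-FRET displacement of an Alexa Fluor 647 active-site tracer, detected with a Eu anti-GST antibody, over an 8-point 1:3 compound series. Tracer was set at its Kd (30 nM for CDK2/Cyclin A, CDK7 and CDK9/Cyclin T1; 35 nM for CDK9/Cyclin K). Read after 1 h at room temperature; Kd was fitted from sigmoidal curves.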

Assay [1] has as its system NF-kappaB reporter gene activation. The assay can be described thus: NF-kappaB Reporter Assay. The class given is cell-based. The settings on record: Homo sapiens; HEK293 cells, pNFkBluc reporter, 20 ng/ml TNF alpha, 5 h; read-out: NF-kappaB activation (activity range), IC50. The protocol: 3.2 NF-kappaB Reporter Assay
Cells were maintained in RPMI cell culture medium+glutamine (PAN Biotech GmbH, Aidenbach, Germany) supplemented with 10% fetal calf serum (PAA Laboratories GmbH, Pasching, Austria) and grown at 37° C., 5% CO2. HEK293 cells grown to 50% confluence were transfected with the Amaxa® Cell Line Nucleofector® Kit V (Lonza, Basel, Switzerland, catalog #VCA-1003). Transfections were performed according to manufacturer's optimized protocol for transfection of HEK293 cells. In brief, 2×10^5 cells were transfected with 5 μg highly purified plasmid DNA. Cells were transfected with a NF-kappa B reporter plasmid (pNFkBluc), pTALluc for control, or pMAXGFP for transfection control. After transfection, cells were taken up in 500 μL RPMI1640 cell culture medium, incubated for 1 h at 37° C., and 4.5 ml DMEM without phenol red were added per transfection. Transfected cells were seeded in 96 well plates (Greiner Bio-One, Frickenhausen, Germany, catalog #655098) with 100 μL cell suspension per well and incubated for 48 h. To each well, 100 μL DMEM with 2× concentrated compound diluted from 10 mM DMSO stocks, or 100 μL DMEM with 0.4% DMSO for control wells, was added. The compounds of general formula (I) summarized in Table 6 were used in this assay. Cells were stimulated with 20 ng/ml TNF alpha, and plates were incubated for 5 h at 37° C./5% CO2. Cell culture supernatants were removed to leave 100 μl medium per well, followed by addition of 100 μl Bright Glo luciferase assay reagent (Promega, Madison, Wis., USA, catalog #E2620), and shaking for 5 minutes in the dark. Luminescence was measured with a Victor Photospectrometer (Perkin Elmer, Waltham, Mass., USA). IC50 values were calculated with the software Excel Fit (IDBS, Guildford, UK) from 2-fold dilution series comprising at least 10 concentrations in duplicates.

T1 sequence (P50750 whole entry): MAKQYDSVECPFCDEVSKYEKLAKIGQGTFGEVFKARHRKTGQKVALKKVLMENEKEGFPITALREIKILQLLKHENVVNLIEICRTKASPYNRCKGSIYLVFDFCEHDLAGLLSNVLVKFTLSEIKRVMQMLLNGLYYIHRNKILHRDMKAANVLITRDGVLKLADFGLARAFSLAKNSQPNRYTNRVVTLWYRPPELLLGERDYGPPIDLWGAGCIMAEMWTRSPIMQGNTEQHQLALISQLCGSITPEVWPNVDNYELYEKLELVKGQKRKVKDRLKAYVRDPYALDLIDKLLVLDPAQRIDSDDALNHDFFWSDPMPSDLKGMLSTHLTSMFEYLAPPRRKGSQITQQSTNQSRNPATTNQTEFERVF
T1 sequence (O60563 whole entry partner): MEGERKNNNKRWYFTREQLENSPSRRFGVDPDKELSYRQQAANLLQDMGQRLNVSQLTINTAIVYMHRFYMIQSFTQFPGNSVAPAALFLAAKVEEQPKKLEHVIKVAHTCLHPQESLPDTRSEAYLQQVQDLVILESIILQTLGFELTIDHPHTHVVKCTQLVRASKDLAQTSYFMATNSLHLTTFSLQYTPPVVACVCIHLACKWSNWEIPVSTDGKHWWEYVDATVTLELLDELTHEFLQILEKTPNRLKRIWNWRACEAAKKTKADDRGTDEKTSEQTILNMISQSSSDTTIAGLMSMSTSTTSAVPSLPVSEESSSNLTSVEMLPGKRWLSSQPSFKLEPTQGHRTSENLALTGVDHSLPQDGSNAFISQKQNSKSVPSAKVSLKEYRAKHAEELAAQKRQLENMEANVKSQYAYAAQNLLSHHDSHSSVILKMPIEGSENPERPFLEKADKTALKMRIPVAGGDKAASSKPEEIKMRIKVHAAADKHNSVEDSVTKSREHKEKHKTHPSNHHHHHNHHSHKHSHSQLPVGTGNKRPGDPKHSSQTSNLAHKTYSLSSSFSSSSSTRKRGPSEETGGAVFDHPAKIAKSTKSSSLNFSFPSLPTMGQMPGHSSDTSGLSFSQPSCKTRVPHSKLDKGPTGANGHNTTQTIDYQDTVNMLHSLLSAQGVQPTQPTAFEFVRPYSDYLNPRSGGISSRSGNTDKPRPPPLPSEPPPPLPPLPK

A word on the IC50: it is the concentration needed to halve the response being measured. For `NS(=O)(=O)Cc1cccc(Nc2ncnc(N3CCCC3c3ccccc3)n2)c1` (racemic) [Compound B33, rac-3-[(4-(2-Phenylpyrrolidin-1-yl)-1,3,5-triazin-2-yl)amino]-benzenemethanesulfonamide], on CDK9/Cyclin T1, the Kd was under 0.1 µM. Also, the IC50 in assay [1] lay within 1 to 10 µM.
For the molecule `NS(=O)(=O)Cc1cccc(Nc2ncnc(N3CCCCC3)n2)c1` [Compound B1, 3-[(4-(Piperidin-1-yl)-1,3,5-triazin-2-yl)amino]benzenemethane sulfonamide], at CDK9/Cyclin T1, the Kd lay in the range of 0.1 to 1 µM. Moreover, the IC50 in assay [1] is over 10 µM.
In the same order, the values of `COC[C@H]1CCCN1c1ncnc(Nc2cccc(CS(N)(=O)=O)c2)n1` [Compound B17, (R)-3-[(4-(2-(Methoxymethyl)pyrrolidin-1-yl)-1,3,5-triazin-2-yl)amino]benzenemethanesulfonamide] are under 0.1 µM and over 10 µM.
On to `COC(=O)[C@H]1CCCN1c1ncnc(Nc2cccc(CS(N)(=O)=O)c2)n1` [Compound B21, (R)-Methyl 1-[4-((3-(Sulfamoylmethyl)phenyl)amino)-1,3,5-triazin-2-yl]pyrrolidine-2-carboxylate], for which, at CDK9/Cyclin T1, the Kd is under 0.1 µM. The IC50 in assay [1] was over 10 µM.
Regarding `NS(=O)(=O)Cc1cccc(Nc2ncnc(N3CCc4ncccc4C3)n2)c1` [Compound B38, 3-[(4-(7,8-Dihydro-1,6-naphthyridin-6(5H)-yl)-1,3,5-triazin-2-yl)amino]-benzenemethanesulfonamide], the Kd at CDK9/Cyclin T1 is under 0.1 µM. In addition, the IC50 in assay [1] lay within 1 to 10 µM.
On to `NS(=O)(=O)Cc1cccc(Nc2ncnc(N3CCc4nc[nH]c4C3)n2)c1` [Compound B44, 3-[(4-(6,7-Dihydro-3H-imidazo[4,5-c]pyridin-5(4H)-yl)-1,3,5-triazin-2-yl)amino]benzenemethanesulfonamide], for which, on CDK9/Cyclin T1, the Kd is under 0.1 µM.
`NS(=O)(=O)Cc1cccc(Nc2ncnc(N3CCc4ncsc4C3)n2)c1` [Compound B45, 3-[(4-(6,7-Dihydrothiazolo[5,4-c]pyridin-5(4H)-yl)-1,3,5-triazin-2-yl)amino]benzenemethanesulfonamide]: the Kd on CDK9/Cyclin T1 is under 0.1 µM.
`NS(=O)(=O)Cc1cccc(Nc2ncnc(N3CCCn4nccc43)n2)c1` [Compound B47, 3-[(4-(6,7-Dihydropyrazolo[1,5-a]pyrimidin-4(5H)-yl)-1,3,5-triazin-2-yl)amino]benzenemethanesulfonamide]: on CDK9/Cyclin T1, the Kd was under 0.1 µM. Moreover, in assay [1], the IC50 was 1 to 10 µM.
As to `NS(=O)(=O)Cc1cccc(Nc2ncnc(N3Cc4cn[nH]c4C3)n2)c1` [Compound B51, 3-[(4-(Pyrrolo[3,4-c]pyrazol-5(1H,4H,6H)-yl)-1,3,5-triazin-2-yl)amino]-benzenemethanesulfonamide], the Kd on CDK9/Cyclin T1 was under 0.1 µM.
